Measured values taken from patent US20230406865A1, “CRYSTAL FORM OF FREE BASE OF INHIBITOR CONTAINING BICYCLIC RING DERIVATIVE AND PREPARATION METHOD AND APPLICATION OF CRYSTAL FORM” (SHANGHAI HANSOH BIOMEDICAL CO., LTD., priority 2020, published 2023).
pIC50: −log10 of the molar value.

Legend:
[1] = test system: TT cells (MTC, RET C634W); test: Inhibition of proliferation of TT cells (CellTiter-Glo, 72 h); format: cell-based; conditions: Homo sapiens
Experimental: TT cells were purchased from the cell bank of the Chinese Academy of Sciences.
When TT cells were cultured to the appropriate fusion level, TT cells were collected, and the cells were adjusted to the appropriate cell concentration using complete medium, and the cell suspension was spread in a 96-well plate, 90 μL per well, and placed to the wall of a 37° C., 5% CO2 incubator overnight; and compound solutions of different concentrations were prepared using DMSO and culture medium; and a solvent control was set, the compound solution was added to a 96-well plate, 10 μL per well, and placed to the wall of a 37° C., 5% CO2 incubator for 72 hours; CellTiter-Glo solution was added thereto and the mixture was mixed well by shaking, incubated for 10 minutes in the dark, and read by BioTek Synergy H1 microplate reader.
The IC50 values were obtained by using luminescence signal values to calculate the inhibition rate, the concentration and the inhibition rate were fitted to a nonlinear regression curve using Graphpad Prism software.

[2] = target: T1, Ba/F3 KIF5B-RET cells (Homo sapiens, UniProt P07949); test: Inhibition of proliferation of Ba/F3 KIF5B-RET cells (CellTiter-Glo); format: cell-based; conditions: 72 to 144 hours
T1 construct: fused on or other part: P33176 (Kinesin-1 heavy chain)
Experimental: When Ba/F3 KIF5B-RET cells were cultured to the appropriate cell density, cells were collected, and the cells were adjusted to the appropriate cell concentration using complete medium, and the cell suspension was spread in a 96-well plate, 90 μL per well, and placed in the wall of a 37° C., 5% CO2 incubator overnight; compound solutions of different concentrations were prepared using DMSO and culture medium; a solvent control was set, and the compound solution was added to a 96-well plate with […] at 37° C. in a 5% CO2 incubator for 72 to 144 hours, CellTiter-Glo solution was added thereto and mixed well by shaking, incubated for 10 minutes in the dark, and read by BioTek Synergy H1 microplate reader.
The IC50 values were obtained by using the luminescence signal values to calculate the inhibition rate, the concentrations and the inhibition rates were fitted to a nonlinear regression curve using Graphpad Prism software.

T1 sequence (P07949 whole entry, change not shown, the tested form may be a part): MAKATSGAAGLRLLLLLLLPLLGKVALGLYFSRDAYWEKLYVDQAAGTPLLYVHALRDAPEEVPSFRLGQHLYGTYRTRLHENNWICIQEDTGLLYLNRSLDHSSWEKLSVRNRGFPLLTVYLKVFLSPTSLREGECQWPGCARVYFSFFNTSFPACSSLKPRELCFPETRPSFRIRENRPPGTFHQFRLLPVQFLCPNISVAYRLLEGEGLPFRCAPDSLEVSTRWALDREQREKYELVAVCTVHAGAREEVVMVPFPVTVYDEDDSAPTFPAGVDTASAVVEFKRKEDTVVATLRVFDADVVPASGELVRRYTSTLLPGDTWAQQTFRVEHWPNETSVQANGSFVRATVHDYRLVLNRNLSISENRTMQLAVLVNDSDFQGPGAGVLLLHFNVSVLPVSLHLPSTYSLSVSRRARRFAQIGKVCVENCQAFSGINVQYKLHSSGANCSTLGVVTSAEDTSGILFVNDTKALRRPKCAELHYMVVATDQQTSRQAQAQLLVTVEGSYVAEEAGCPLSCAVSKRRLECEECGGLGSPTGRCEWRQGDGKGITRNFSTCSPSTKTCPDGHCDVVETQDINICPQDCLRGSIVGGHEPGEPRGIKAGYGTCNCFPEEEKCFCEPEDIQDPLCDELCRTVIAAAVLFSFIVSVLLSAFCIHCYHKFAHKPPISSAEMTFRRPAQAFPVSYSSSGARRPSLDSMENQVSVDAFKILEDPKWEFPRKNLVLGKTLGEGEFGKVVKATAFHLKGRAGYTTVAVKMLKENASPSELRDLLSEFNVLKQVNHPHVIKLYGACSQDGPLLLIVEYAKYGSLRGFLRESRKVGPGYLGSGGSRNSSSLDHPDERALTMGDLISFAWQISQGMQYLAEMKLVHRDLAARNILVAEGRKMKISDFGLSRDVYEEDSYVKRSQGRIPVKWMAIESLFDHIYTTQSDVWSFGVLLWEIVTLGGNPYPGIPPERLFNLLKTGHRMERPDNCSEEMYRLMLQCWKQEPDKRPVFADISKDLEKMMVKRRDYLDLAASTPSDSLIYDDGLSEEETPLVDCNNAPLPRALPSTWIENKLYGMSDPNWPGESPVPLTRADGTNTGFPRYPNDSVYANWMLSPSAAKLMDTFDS

Row | Structure (SMILES) | pIC50 [1] | pIC50 [2]
1 | COc1ccc(CN2C3CC2CN(c2ccc(-c4cc(OCC56CC(CO)(C5)C6)cn5ncc(C#N)c45)cn2)C3)cn1 [Embodiment 45, 6-((3-(Hydroxymethyl)bicyclo[1.1.1]pentan-1-yl)methoxy)-4-(6-(6-((6-methoxypyridin-3-yl)methyl)-3,6-diazabicyclo[3.1.1]heptan-3-yl)pyridin-3-yl)pyrazolo[1,5-a]pyridine-3-carbonitrile] | 8.04 | 8.15
2 | COc1ccc(CN2C3CC2CN(c2ccc(-c4cc(C#CC5(O)CCC5)cn5ncc(C#N)c45)cn2)C3)cn1 [Embodiment 82, 6-((1-Hydroxycyclobutyl)ethynyl)-4-(6-(6-((6-methoxypyridin-3-yl)methyl)-3,6-diazabicyclo[3.1.1]heptan-3-yl)pyridin-3-yl)pyrazolo[1,5-a]pyridine-3-carbonitrile] | 7.75 | 7.66
3 | COc1ncc(CN2C3CC2CN(c2ccc(-c4cc(C#CC5(O)COC5)cn5ncc(C#N)c45)cn2)C3)cc1F [Embodiment 81, 4-(6-(6-((5-Fluoro-6-methoxypyridin-3-yl)methyl)-3,6-diazabicyclo[3.1.1]heptan-3-yl)pyridin-3-yl)-6-((3-hydroxyoxetan-3-yl)ethynyl)pyrazolo[1,5-a]pyridine-3-carbonitrile] | 7.86 | 7.77
4 | CC(C)(N)C#Cc1cc(-c2ccc(N3CCC(C)(NC(=O)c4ncccc4Cl)CC3)nc2)c2c(C#N)cnn2c1 [Embodiment 86, N-(1-(5-(6-(3-Amino-3-methylbut-1-yn-1-yl)-3-cyanopyrazolo[1,5-a]pyridin-4-yl)pyridin-2-yl)-4-methylpiperidin-4-yl)-3-chloropicolinamide] | 7.84 | 7.81
5 | COc1ccc(CN2C3CC2CN(c2ccc(-c4cc(C#CC5(O)CCOCC5)cn5ncc(C#N)c45)cn2)C3)cn1 [Embodiment 78, 6-((4-Hydroxytetrahydro-2H-pyran-4-yl)ethynyl)-4-(6-(6-((6-methoxypyridin-3-yl)methyl)-3,6-diazabicyclo[3.1.1]heptan-3-yl)pyridin-3-yl)pyrazolo[1,5-a]pyridine-3-carbonitrile] | 7.86 | 7.81
6 | COc1ncc(CN2C3CC2CN(c2ccc(-c4cc(C#CC5(O)CCOCC5)cn5ncc(C#N)c45)cn2)C3)cc1F [Embodiment 79, 4-(6-(6-((5-Fluoro-6-methoxypyridin-3-yl)methyl)-3,6-diazabicyclo[3.1.1]heptan-3-yl)pyridin-3-yl)-6-((4-hydroxytetrahydro-2H-pyran-4-yl)ethynyl)pyrazolo[1,5-a]pyridine-3-carbonitrile] | 7.98 | 7.86
7 | COCC(C)(O)C#Cc1cc(-c2ccc(N3CC4CC(C3)N4Cc3ccc(OC)nc3)nc2)c2c(C#N)cnn2c1 (stereo not drawn) [Embodiment 75, 6-(3-Hydroxy-4-methoxy-3-methylbut-1-yn-1-yl)-4-(6-(6-((6-methoxypyridin-3-yl)methyl)-3,6-diazabicyclo[3.1.1]heptan-3-yl)pyridin-3-yl)pyrazolo[1,5-a]pyridine-3-carbonitrile] | 7.61 | 7.46
8 | [2H]C([2H])([2H])Oc1ccc(CN2C3CC2CN(c2ccc(-c4cc(C#CC(C)(C)O)cn5ncc(C#N)c45)cn2)C3)cn1 [Embodiment 25, 6-(3-Hydroxy-3-methylbut-1-yn-1-yl)-4-(6-(6-((6-(methoxy-d3)pyridin-3-yl)methyl)-3,6-diazabicyclo[3.1.1]heptan-3-yl)pyridin-3-yl)pyrazolo[1,5-a]pyridine-3-carbonitrile] | 7.82 | 7.87
9 | Cc1ccc(F)cc1C(=O)NC1(C)CCN(c2ccc(-c3cc(C#CC(C)(C)N)cn4ncc(C#N)c34)cn2)CC1 [Embodiment 87, N-(1-(5-(6-(3-amino-3-methylbut-1-yn-1-yl)-3-cyanopyrazolo[1,5-a]pyridin-4-yl)pyridin-2-yl)-4-methylpiperidin-4-yl)-5-fluoro-2-methylbenzamide] | 7.63 | 7.73
